# Columns and labels:
# [1] = tested on: R6/2 mice; assay: Cued Two-Choice Swim Test; assay type: in vivo, mouse; conditions: for Cued 2-CST Reversal, Correct Choice: p vs Vehicle-treated R6/2 mice / Cued 2-CST Acquisition, % of Mice Reaching Criterion: p vs Vehicle-treated R6/2 mice: BID; for Cued 2-CST Reversal, Correct Choice: p vs Vehicle-treated R6/2 mice: ANOVA; for Cued 2-CST Acquisition, % of Mice Reaching Criterion: p vs Vehicle-treated R6/2 mice: at 9 Weeks, Fisher's exact test
# Protocol: The cued two-choice swim test was performed at 9 weeks of age. Testing was conducted under low light, white light conditions. The mice were taught to swim to (acquisition), or away from (reversal), a light positioned over the escape platform. Animals were placed within a rectangular tank (76 cm x 30 cm x 30 cm) filled with water maintained at 25°C ± 1°C. The water was rendered opaque by the addition of non-toxic white paint. The escape platform was located 0.5 cm below the surface of the water at one end of the tank. A light source with a 25W bulb (white light), oriented toward the water, was clipped to one side of the tank above the escape platform (7 cm in diameter with the borders slanted and roughened to help the rodents climb to it). Under these conditions, the light intensity is measured as 200 lux on the illuminated side of the tank, and 3 lux on the dark side of the tank. The platform was located on the lit side of the arena across acquisition trials, although the location of the lit side within the room relative to the mouse’s entry point was varied. The location of the bulb and platform was different on different trials for the same mouse. On each trial, mice were placed into the middle of the tank and allowed to swim for up to 60 sec, or until they found the platform. […] During all acquisition days, mice were given 8 trials per day (4 blocks of 2 trials, separated by an interblock interval of 20-30 minutes). Training continued in this way until each mouse performed at 75% correct choices for 2 consecutive days; upon reaching this criterion for successful acquisition of the task, mice were placed into the reversal phase on an individual basis. During reversal training, (4 blocks of 2 trials per day), the platform was placed on the dark side of the tank. On each trial during testing days, the latency to reach the platform was recorded (60 seconds if the platform was not reached) and the trial was scored as either “correct”, “incorrect” or “no choice”. The maximum number of days of acquisition was 12 days. All mice went from acquisition into the reversal phase and the experiment was stopped when 2 consecutive days of 75% criterion was reached or after a maximum of 7 days of reversal testing. A correct choice was scored if the animal turned in the direction of the platform and successfully mounted the platform. An incorrect choice was scored if the animal swam in the direction opposite the platform. […] To make a choice, a mouse had to swim within 20 cm of either end of the tank.
# All values are presented as mean ± Standard Error of Mean (SEM), and differences are considered to be statistically significant at the p < 0.05 level. Statistical analysis was performed using StatsDirect statistical software. Differences between group means were analyzed by 1-way-ANOVA followed by Dunnett’s test (comparison to the control (=vehicle treated TG mice) group). The acquisition of the Cued two-choice swim test was analyzed using Fisher’s exact test.
# [2] = tested on: R6/2 mice; assay: Acute and subchronic (2 weeks) tolerability evaluation in R6/2 mice; assay type: in vivo; conditions: R6/2 mice starting at 6 weeks of age, all doses administered
# Source text: Prior to chronic dosing, we conducted an acute and subchronic (2 weeks) tolerability evaluation in R6/2 mice starting at 6 weeks of age (studies conducted at Psychogenics, USA; see Supplementary Report 1 for full details).
smiles,measurement,setting,value
"CN1C(=O)c2nc(Cc3ccc(C(F)(F)F)cc3)[nH]c2N2C1=N[C@H]1CCC[C@H]12 [SCH-51866, (+)-cis-5,6a,7,8,9,9a-hexahydro-2-[4-[trifluro-methyl]phenylmethyl]-5-methyl-cylopent[4,5]imidazo [2,1-b]purin-4(3H)one]","Cued Two-Choice Swim Test: learning phase, reversal learning, latency to make the choice, effect in words","[1]; R6/2 mice, 9 weeks of age",did not improve any of these parameters
same,"Cued 2-CST Reversal, Correct Choice: p vs Vehicle-treated R6/2 mice","[1]; Test Day 1, 10 mg/kg p.o.",ANOVA: p=0.117
same,"Cued 2-CST Reversal, Correct Choice: p vs Vehicle-treated R6/2 mice","[1]; Test Day 1, 30 mg/kg p.o.",ANOVA: p=0.117
same,"Cued 2-CST Reversal, Correct Choice: p vs Vehicle-treated R6/2 mice","[1]; Test Day 2, 10 mg/kg p.o.",ANOVA: p=0.311
same,"Cued 2-CST Reversal, Correct Choice: p vs Vehicle-treated R6/2 mice","[1]; Test Day 2, 30 mg/kg p.o.",ANOVA: p=0.311
same,"Cued 2-CST Reversal, Correct Choice: p vs Vehicle-treated R6/2 mice","[1]; Test Day 3, 10 mg/kg p.o.",ANOVA: p=0.573
same,"Cued 2-CST Reversal, Correct Choice: p vs Vehicle-treated R6/2 mice","[1]; Test Day 3, 30 mg/kg p.o.",ANOVA: p=0.573
same,"Cued 2-CST Reversal, Correct Choice: p vs Vehicle-treated R6/2 mice","[1]; Test Day 4, 10 mg/kg p.o.",ANOVA: p=0.206
same,"Cued 2-CST Reversal, Correct Choice: p vs Vehicle-treated R6/2 mice","[1]; Test Day 4, 30 mg/kg p.o.",ANOVA: p=0.206
same,"Cued 2-CST Reversal, Correct Choice: p vs Vehicle-treated R6/2 mice","[1]; Test Day 5, 10 mg/kg p.o.",ANOVA: p=0.057
same,"Cued 2-CST Reversal, Correct Choice: p vs Vehicle-treated R6/2 mice","[1]; Test Day 5, 30 mg/kg p.o.",ANOVA: p=0.057
same,"Cued 2-CST Reversal, Correct Choice: p vs Vehicle-treated R6/2 mice","[1]; Test Day 6, 10 mg/kg p.o.",ANOVA: p=0.140
same,"Cued 2-CST Reversal, Correct Choice: p vs Vehicle-treated R6/2 mice","[1]; Test Day 6, 30 mg/kg p.o.",ANOVA: p=0.140
same,"Cued 2-CST Acquisition, % of Mice Reaching Criterion: p vs Vehicle-treated R6/2 mice","[1]; Test Day 2, 10 mg/kg p.o.",p>0.999
same,"Cued 2-CST Acquisition, % of Mice Reaching Criterion: p vs Vehicle-treated R6/2 mice","[1]; Test Day 2, 30 mg/kg p.o.",p=0.487
same,"Cued 2-CST Acquisition, % of Mice Reaching Criterion: p vs Vehicle-treated R6/2 mice","[1]; Test Day 3, 10 mg/kg p.o.",p>0.999
same,"Cued 2-CST Acquisition, % of Mice Reaching Criterion: p vs Vehicle-treated R6/2 mice","[1]; Test Day 3, 30 mg/kg p.o.",p>0.999
same,"Cued 2-CST Acquisition, % of Mice Reaching Criterion: p vs Vehicle-treated R6/2 mice","[1]; Test Day 4, 10 mg/kg p.o.",p>0.999
same,"Cued 2-CST Acquisition, % of Mice Reaching Criterion: p vs Vehicle-treated R6/2 mice","[1]; Test Day 4, 30 mg/kg p.o.",p>0.999
same,"Cued 2-CST Acquisition, % of Mice Reaching Criterion: p vs Vehicle-treated R6/2 mice","[1]; Test Day 5, 10 mg/kg p.o.",p>0.999
same,"Cued 2-CST Acquisition, % of Mice Reaching Criterion: p vs Vehicle-treated R6/2 mice","[1]; Test Day 5, 30 mg/kg p.o.",p>0.999
same,"Cued 2-CST Acquisition, % of Mice Reaching Criterion: p vs Vehicle-treated R6/2 mice","[1]; Test Day 6, 10 mg/kg p.o.",p=0.313
same,"Cued 2-CST Acquisition, % of Mice Reaching Criterion: p vs Vehicle-treated R6/2 mice","[1]; Test Day 6, 30 mg/kg p.o.",p>0.999
same,"Cued 2-CST Acquisition, % of Mice Reaching Criterion: p vs Vehicle-treated R6/2 mice","[1]; Test Day 7, 10 mg/kg p.o.",p=0.508
same,"Cued 2-CST Acquisition, % of Mice Reaching Criterion: p vs Vehicle-treated R6/2 mice","[1]; Test Day 7, 30 mg/kg p.o.",p=0.752
same,"Cued 2-CST Acquisition, % of Mice Reaching Criterion: p vs Vehicle-treated R6/2 mice","[1]; Test Day 8, 10 mg/kg p.o.",p=0.313
same,"Cued 2-CST Acquisition, % of Mice Reaching Criterion: p vs Vehicle-treated R6/2 mice","[1]; Test Day 8, 30 mg/kg p.o.",p=0.751
same,"Cued 2-CST Acquisition, % of Mice Reaching Criterion: p vs Vehicle-treated R6/2 mice","[1]; Test Day 9, 10 mg/kg p.o.",p>0.999
same,"Cued 2-CST Acquisition, % of Mice Reaching Criterion: p vs Vehicle-treated R6/2 mice","[1]; Test Day 9, 30 mg/kg p.o.",p>0.999
same,"Cued 2-CST Acquisition, % of Mice Reaching Criterion: p vs Vehicle-treated R6/2 mice","[1]; Test Day 10, 10 mg/kg p.o.",p>0.999
same,"Cued 2-CST Acquisition, % of Mice Reaching Criterion: p vs Vehicle-treated R6/2 mice","[1]; Test Day 10, 30 mg/kg p.o.",p>0.999
same,"Cued 2-CST Acquisition, % of Mice Reaching Criterion: p vs Vehicle-treated R6/2 mice","[1]; Test Day 11, 10 mg/kg p.o.",p>0.999
same,"Cued 2-CST Acquisition, % of Mice Reaching Criterion: p vs Vehicle-treated R6/2 mice","[1]; Test Day 11, 30 mg/kg p.o.",p=0.716
same,"Cued 2-CST Acquisition, % of Mice Reaching Criterion: p vs Vehicle-treated R6/2 mice","[1]; Test Day 12, 10 mg/kg p.o.",p>0.999
same,"Cued 2-CST Acquisition, % of Mice Reaching Criterion: p vs Vehicle-treated R6/2 mice","[1]; Test Day 12, 30 mg/kg p.o.",p>0.999
same,tolerability,[2],well tolerated with no sign of adverse effects
